Entries after “also recorded” stand apart in the source; their conditions may differ.
Tests used:
DO11.10 T cells = experiment: in vitro screen: 3H-thymidine proliferation of DO11.10 T cells co-cultured with OVA323-339-pulsed dendritic cells (non-specific toxicity screen); assay type: cell-based, mice; details: 5 mM and 0.1 μM; 16:1 and 64:1 ratio T:DC co-cultures
Procedure: The initial biological screen for the selected small molecule compounds was based in functional characteristics of enhancement of Th1 function and secretion of Th1 cytokines (e.g., Interferon-γ (IFN-γ)). In this process, dendritic cells (DC) were obtained by GM-CSF stimulation of bone marrow stem cells for 6 days, pulsed for 18 hours with OVA323-339 peptide to load specific antigen on these antigen presenting cells and then purified using CD11c magnetic bead separation. This population of cells is routinely >98% CD11c positive, as determined by flow cytometry. Transgenic T cells with specificity for the ovalbumin 323-339 epitope (OVA323-339) were obtained from naïve spleens of DO11.10 transgenic mice. The splenic cells were harvested and magnetic beads used to isolate the CD4 T cell population. This latter population of cells is routinely >95% CD4^+. The cells were then co-cultured in round-bottomed 96 well tissue culture plates, at varying ratios, maintaining 2×10^5 CD4^+ T cells in each well, and varying the number of dendritic cells added (See FIG. 2). […]
An initial screen was carried out with 18 compounds, using the in vitro screening process established in Example 2, above. Initially, all 18 compounds were evaluated for toxicity at 5 mM and 0.1 μM, by evaluation of proliferation of 16:1 and 64:1 ratio T:DC co-cultures. […]

[1] = system: co-cultures of DC-T cells; experiment: in vitro screen: IFN-γ secretion in DO11.10 T cell / OVA323-339-peptide loaded dendritic cell co-cultures; assay type: cell-based, mice; details: for IFN-γ enhancement at the highest concentration: 64:1 ratio, 1000 ng/ml; for IFN-γ secretion compared to control samples: initial screen, 16:1 and 64:1 T:DC co-cultures
Procedure: The initial biological screen for the selected small molecule compounds was based in functional characteristics of enhancement of Th1 function and secretion of Th1 cytokines (e.g., Interferon-γ (IFN-γ)). In this process, dendritic cells (DC) were obtained by GM-CSF stimulation of bone marrow stem cells for 6 days, pulsed for 18 hours with OVA323-339 peptide to load specific antigen on these antigen presenting cells and then purified using CD11c magnetic bead separation. This population of cells is routinely >98% CD11c positive, as determined by flow cytometry. Transgenic T cells with specificity for the ovalbumin 323-339 epitope (OVA323-339) were obtained from naïve spleens of DO11.10 transgenic mice. The splenic cells were harvested and magnetic beads used to isolate the CD4 T cell population. This latter population of cells is routinely >95% CD4^+. The cells were then co-cultured in round-bottomed 96 well tissue culture plates, at varying ratios, maintaining 2×10^5 CD4^+ T cells in each well, and varying the number of dendritic cells added (See FIG. 2).
The in vitro screen for functional activity was based on two parameters. The first parameter, ^3H-thymidine incorporation measuring proliferation of OVA323-339-peptide-specific DO11.10 T cells cultured in the presence of OVA323-339-peptide pulsed GM-CSF derived dendritic cells, should not be affected by CD154-CD40 interactions, and thus was used as a screen for non-specific toxicity of the compounds to immune cell co-cultures. The second parameter, which is controlled in the DO11.10 T cell —OVA323-339-peptide loaded dendritic cell co-cultures by CD40 ligation, is that of Interferon-γ secretion by the activated T cells.
Thus, it was hypothesized that if it was possible to enhance immune function by stabilization of CD154-CD40 ligand pair interactions through prolonged stability of CD154 homotrimers, then IFN-γ production should be increased by addition of the small molecule compounds.
An initial screen was carried out with 18 compounds, using the in vitro screening process established in Example 2, above. Initially, all 18 compounds were evaluated for toxicity at 5 mM and 0.1 μM, by evaluation of proliferation of 16:1 and 64:1 ratio T:DC co-cultures. Second, expression of IFN-γ was observed and compared to that of control samples. Of the initial 18 small molecule compounds, 5 compounds were eliminated at this early stage because they inhibited T cell proliferation and were toxic to the cells in culture. […] These two compounds, JFPH and JFPB, were selected for further study, as described below.
Small molecules in DMSO vehicle were added at various dilutions to co-cultures of DC-T cells and after four days supernatants characterized for the production of IFNγ. […]

[2] = system: experimental autoimmune encephalomyelitis (EAE); experiment: mouse model of experimental autoimmune encephalomyelitis (EAE), PLP139-151 peptide in CFA; assay type: in vivo
Procedure: Experiments were conducted to confirm that the small molecules could stabilize and therefore enhance Th1 effector function in vivo. Efficacy was tested in a mouse model of experimental autoimmune encephalomyelitis (EAE), a model of Multiple Sclerosis (MS) (See, e.g., Karlsson et al., The Journal of Immunology, 2003, 170: 1019-1026).
EAE is dependent upon CD154-CD40 interactions in the central nervous system (CNS). Initial experiments were carried out to determine the effects of these small molecules on clinical disease severity in an optimal process of induction of EAE. The compounds should not modify the severity of clinical disease over that of the vehicle control treated animals, but enhancement and prolonged Th1 responses peripherally may be observed. Second, experiments were conducted to address whether the severity and/or incidence of EAE disease could be enhanced by the small molecule therapy in mice immunized with suboptimal myelin antigenic peptide, such that the small molecules might enhance in vivo functional activity of the antigen specific Th1 cells induced in these mice, that normally would have low incidence and severity of clinical disease.
Mice were immunized with PLP139-151-peptide in CFA and treated on days 9 and 10 with 100 nmol JFPH in olive oil or vehicle alone. Clinical disease was then evaluated. Clinical severity was assessed on a 0 to 5 scale as follows: grade 1, limp tail; grade 2, limp tail and hind limb weakness (waddling gait); grade 3, partial hind limb paralysis; grade 4, complete hind limb paralysis; and grade 5, moribund. The data are plotted as the daily mean clinical score for all animals in a particular treatment group, and mean day of onset for each mouse was determined and plotted (See, FIG. 5(b)) as a box and whisker plot. When optimal EAE induction was carried out using 50 μg doses of PLP139-151 peptide, disease severity was not affected by treatment with 100 nmol JFPH on days 9 and 10 post-immunization. However, the mean day of disease onset was earlier in the JFPH treated mice compared to vehicle controls (p<0.0001) as determined by a Wilcoxon Sign-Rank test.
In experiments where suboptimal induction of EAE was induced with 25 μg doses of PLP139-151 peptide, the incidence of disease was low for vehicle treated mice (60%) compared to that of JFPH treated mice (100%). Briefly, mice were immunized with 25 μg PLP139-151-peptide in CFA and treated on days 0, 1, 8 and 9 with 100 nmol JFPH in olive oil or vehicle of olive oil alone (FIG. 6, treatment days marked by downward triangles). Clinical disease was evaluated and the cumulative mean clinical scores determined by addition of scores cumulatively with each subsequent day of evaluation (FIG. 6, right panel). The average maximum score for vehicle treated mice was 1.2 (due in part to one individual mouse) versus 1.8 for JFPH treated mice, and in both mean day of onset and mean day of peak disease severity, the JFPH treated mice reached these time points an average of 3 days earlier than that of vehicle treated mice.

[3] = system: syngeneic renal cell carcinoma (RCC) cells; experiment: sub-cutaneous renal cell carcinoma tumor model; assay type: in vivo, Balb/c mice; details: various concentrations, i.p. in olive oil 3x/week for 3 weeks from day 3
Procedure: (§1) In order to evaluate the efficacy of JFPH in a murine tumor model, Balb/c mice were first injected with syngeneic renal cell carcinoma (RCC) cells. The injections were delivered either sub-cutaneously or orthotopically under the kidney capsule (intra-renal). JFPH drug was diluted in olive oil to a desired concentration. Mice were injected with JFPH in olive oil intra-peritoneally 3×/week for a total of 3 weeks, beginning on day 3 post-tumor cell injection. As a vehicle control, mice were administered with only olive oil (no JFPH). For the sub-cutaneous tumor model, primary tumors were measured with calipers 3×/week and the tumor area was calculated. For the intra-renal tumor model, mice were euthanized on day 21 post tumor-cell injection and the lungs were harvested and placed in fixative. The number of lung metastases were then counted under a dissecting microscope.

[4] = system: syngeneic renal cell carcinoma (RCC) cells; experiment: intra-renal renal cell carcinoma tumor model, lung metastases; assay type: in vivo, Balb/c mice; details: 500 nmoles i.p. in olive oil 3x/week for 3 weeks
Procedure: as §1

[5] = suboptimal EAE induction, 25 μg PLP139-151
[6] = suboptimal EAE induction, 25 μg PLP139-151, 100 nmol days 0, 1, 8 and 9

| Compound | T cell proliferation (DO11.10 T cells) | IFN-γ enhancement at the highest concentration [1] | IFN-γ secretion compared to control samples [1] | disease onset ([2]; EAE induced under suboptimal conditions) | mean day of onset ([2]; optimal EAE induction, 50 μg PLP139-151, 100 nmol days 9 and 10, ± standard deviation) | disease severity (clinical score 0 to 5) ([2]; optimal EAE induction, 50 μg PLP139-151, 100 nmol in olive oil days 9 and 10) | disease onset compared to vehicle controls ([2]; optimal EAE induction, 100 nmol days 9 and 10) | disease course longer than vehicle control [2, 5] | mean day of onset, earlier than vehicle treated mice [2, 5] | mean day of peak disease severity, earlier than vehicle treated mice [2, 5] | average maximum score [2, 6] | incidence of disease [2, 6] | mean day of remission versus vehicle ([2]; suboptimal EAE induction, remission = reduction of one full score for two days) | sub-cutaneous renal cancer tumor growth (tumor area) versus control mice [3] | renal cancer metastasis (number of lung metastases, day 21) versus control mice [4] |
| --- | --- | --- | --- | --- | --- | --- | --- | --- | --- | --- | --- | --- | --- | --- | --- |
| FC(F)(F)c1cc(N2CCCCCCC2)c2c(Cl)cc(Cl)cc2n1 [JFPH, 4-azocan-1-YL-5,7-dichloro-2-(trifluoromethyl)quinoline] | no effect | enhancement was observed | consistently enhanced IFN-γ secretion | accelerated disease onset | 15.47 ± 1.68 days | not affected | accelerated disease onset; also recorded: earlier | 3 days | 3 days | 3 days | 1.8 | 100% | no difference | delays sub-cutaneous growth of renal cancer; also recorded: delayed renal cancer tumor growth | reduces renal cancer metastasis; also recorded: significant reduction of renal cancer metastasis |
| CCOC(=O)NC(=O)c1cn(CCNc2ncc(C(F)(F)F)cc2Cl)c(=O)[nH]c1=O [JFPB, ethyl N-[[1-(2-[[3-chloro-5-(trifluoromethyl)-2-pyridinyl]amino]ethyl)-2,4-dioxo-1,2,3,4-tetrahydro-5-pyrimidinyl]carbonyl]carbamate] | no effect | reduced IFN-γ enhancement | consistently enhanced IFN-γ secretion |  |  |  |  |  |  |  |  |  |  |  |  |
